# Laboratory results reported in patent US8044100B2, “Methods and compositions for treating amyloid-related diseases” (Bellus Health Inc., priority 2004, dated 2011).
# Tests used:
# [1] = tested on: amyloid plaques in the brains of TgCRND8 mice; assay: ThioS histology of brain sections of TgCRND8 mice: number of plaques and area occupied; assay type: in vivo, mouse; settings: for Change in Plaque Area / Change in Plaque Number: 16 wks, ThioS
# Description: For the ThioS studies, the plaques in the brains of the mice were quantified as follows. Mice were transcardially perfused with saline solution. Brains were dissected out and separated in 2 hemispheres. The left hemisphere was immersed in freshly-prepared 4% paraformaldehyde for 3 hrs at 4° C., then transfered into 30% sucrose at 4° C. When cryoprotection was achieved (24-48 hours), brains were frozen in isopentane at −45° C. and subsequently stored at −80° C. until sectioning. Coronal 40 μm-thick sections were performed, and stained with thioflavin S (1% solution in water) for 8 min. After differentiation of the thioflavin S staining, sections were counterstained with hematoxylin for 5 minutes. Two sets of pictures were captured simultaneously. A first set of pictures was captured under brightfield illumination to obtain morphological details of the section; a second set of pictures was captured under a green, specific, fluorescent filter (fluorescein filter, Ex 495 nm, Em 525 nm). Image analysis to quantify the number of plaques and the area occupied by these plaques was performed using Image Pro Plus software (Media Cybernetics, MD, USA).
# Increases in the areas and numbers of plaques are indicated using “+” symbols, while decreases in the areas and numbers of the plaques are indicated using “−” symbols.
# Specifically, increases in the areas and numbers of plaques (relative to vehicle treated control) of 10 to 19.99% are scored as “+”. Decreases in the areas and numbers of plaques of 10 to 19.99% are scored as “−”. Additionally, changes of 9.99% or less in either direction are scored as “0”.
# [2] = tested on: Aβ peptides (Aβ40, Aβ42) in the plasma and brain of TgCRND8 mice; assay: Long term treatment (8 or 16 weeks) in TgCRND8 mice: Aβ levels in plasma and brain; assay type: in vivo, mouse; settings: for Brain Abeta40 insoluble / Brain Abeta40 soluble / Brain Abeta42 insoluble / Brain Abeta42 soluble / Plasma Abeta40 / Plasma Abeta42: BX subcutaneous, BW and BZ oral
# Description: The long-term therapeutic effects of compounds of the present invention on cerebral amyloid deposition and β-amyloid (Aβ) levels in the plasma and in the brains of transgenic mice, TgCRND8, expressing the human amyloid precursor protein (hAPP) was studied. These compounds were administered over an 8 or 16 week period at the end of which the levels of Aβ peptides in the plasma and brain of TgCRND8 animals were determined. The goal of this study was to evaluate the efficacy of the compounds at modulating the progression of the amyloidogenic process in the brain and in the plasma of a transgenic mouse model of Alzheimer's disease (AD)
# The mice used in the study consisted of animals bearing one copy of the hAPP gene (+/−) from the 2nd and 3rd generation progenies (N2 and N3) derived from backcrosses from TgCRND8.FVB(N2)AJ(N3) with B6AF1/J hybrid animals. • N1=TgCRND8.FVB(N2)AJ(N3)×B6AF1/J • N2=TgCRND8.FVB(N2)AJ(N3).B6AF1/J(N1)×B6AF1/J • N3=TgCRND8.FVB(N2)AJ(N3).B6AF1/J(N2)×B6AF1/J
# The following abbreviations are used to designate these animals in the present study: TgCRND8.B6AF1/J(N2); TgCRND8.B6AF1/J(N3). Male and female transgenic mice were given daily subcutaneous (compound BX) or oral (compounds BW and BZ) administrations of the appropriate compounds for 8 or 16 weeks.
# Baseline animals consisted of 9±1 week old naive TgCRND8.B6AF1/J animals from the 2nd and 3rd generations. These mice were used to determine the extent of cerebral amyloid deposits and Aβ levels in the plasma and brain of naive transgenic animals at the initiation of treatment.
# Starting at 9 weeks of age (+1 week) animals received daily administration of their respective treatment for a period of 8 or 16 weeks, at a dose of 30 or 100 mg/kg at 10 ml/kg. The route of administration was subcutaneous for water-soluble compounds (Compound BX) and oral for compounds solubilized in methylcellulose 1% (MC 1%) (Compounds BW and BZ). At the end of the treatment periods, plasma and perfused brains were collected for quantification of Aβ levels.
# Animal health was monitored, samples were collected and Aβ levels were measured as described above in the short term treatment study. Compounds were scored based on their ability to modulate levels of Aβ peptides in the plasma and the cerebral soluble/insoluble levels in the brain. Levels of Aβ observed in the plasma and brain of treated animals were compared to that of vehicle-treated (water) or methylcellulose-treated control groups and ranked according to the strength of the pharmacological effect. Increases in the levels of Aβ peptides are indicated using “+” symbols, while decreases in the levels of Aβ peptides are indicated using “−” symbols. The strongest effects are recorded as “+++” or “−−−” while the weakest are shown as “+” or “−”.
# Specifically, increases in the levels of Aβ (relative to vehicle treated control) of 5 to 14% are scored as “+”; increases of 15 to 29% are scored as “++”; and increases of 30% or higher are scored as “+++”. Decreases in the levels of Aβ of 5 to 14% are scored as “−”; decreases of 15 to 29% are scored as “−−”; and decreases of 30% or more are scored as “−−−”. Additionally, changes of 4% or less in either direction are scored as “0”.
# [3] = 30 mg/kg, ThioS staining of brain sections, preliminary
SMILES,Change in Plaque Area ([1]; 30 mg/kg),Change in Plaque Number ([1]; 30 mg/kg),Change in Plaque Area ([1]; 100 mg/kg),Change in Plaque Number ([1]; 100 mg/kg),"Brain Abeta40 insoluble ([2]; 30 mg/kg daily, 8 wks)","Brain Abeta40 soluble ([2]; 30 mg/kg daily, 8 wks)","Brain Abeta42 insoluble ([2]; 30 mg/kg daily, 8 wks)","Brain Abeta42 soluble ([2]; 30 mg/kg daily, 8 wks)","Plasma Abeta40 ([2]; 30 mg/kg daily, 8 wks)","Plasma Abeta42 ([2]; 30 mg/kg daily, 8 wks)","Brain Abeta40 insoluble ([2]; 30 mg/kg daily, 16 wks)","Brain Abeta40 soluble ([2]; 30 mg/kg daily, 16 wks)","Brain Abeta42 insoluble ([2]; 30 mg/kg daily, 16 wks)","Brain Abeta42 soluble ([2]; 30 mg/kg daily, 16 wks)","Plasma Abeta40 ([2]; 30 mg/kg daily, 16 wks)","Plasma Abeta42 ([2]; 30 mg/kg daily, 16 wks)","Brain Abeta40 insoluble ([2]; 100 mg/kg daily, 8 wks)","Brain Abeta40 soluble ([2]; 100 mg/kg daily, 8 wks)","Brain Abeta42 insoluble ([2]; 100 mg/kg daily, 8 wks)","Brain Abeta42 soluble ([2]; 100 mg/kg daily, 8 wks)",other results
"CC(C)(C)NCCCS(=O)(=O)O [BX, 3-(t-butyl)amino-1-propanesulfonic acid]",− (Decreases in the areas and numbers of plaques of 10 to 19.99%),− (Decreases in the areas and numbers of plaques of 10 to 19.99%),+ (increases in the areas and numbers of plaques (relative to vehicle treated control) of 10 to 19.99%),0 (changes of 9.99% or less in either direction),−−− (decreases of 30% or more),−−− (decreases of 30% or more),−− (decreases of 15 to 29%),−−− (decreases of 30% or more),+ (increases in the levels of Aβ (relative to vehicle treated control) of 5 to 14%),+ (increases in the levels of Aβ (relative to vehicle treated control) of 5 to 14%),−−− (decreases of 30% or more),−− (decreases of 15 to 29%),− (Decreases in the levels of Aβ of 5 to 14%),0 (changes of 4% or less in either direction),− (Decreases in the levels of Aβ of 5 to 14%),− (Decreases in the levels of Aβ of 5 to 14%),++ (increases of 15 to 29%),+ (increases in the levels of Aβ (relative to vehicle treated control) of 5 to 14%),0 (changes of 4% or less in either direction),+ (increases in the levels of Aβ (relative to vehicle treated control) of 5 to 14%),"area occupied by the plaques [1, 3]: decreased; number of plaques [1, 3]: decreased; Plasma Abeta40 ([2]; 100 mg/kg daily, 8 wks): ++ (increases of 15 to 29%); Plasma Abeta42 ([2]; 100 mg/kg daily, 8 wks): +++ (increases of 30% or higher); Brain Abeta40 insoluble ([2]; 100 mg/kg daily, 16 wks): −−− (decreases of 30% or more); Brain Abeta40 soluble ([2]; 100 mg/kg daily, 16 wks): − (Decreases in the levels of Aβ of 5 to 14%); Brain Abeta42 insoluble ([2]; 100 mg/kg daily, 16 wks): −− (decreases of 15 to 29%); Brain Abeta42 soluble ([2]; 100 mg/kg daily, 16 wks): 0 (changes of 4% or less in either direction); Plasma Abeta40 ([2]; 100 mg/kg daily, 16 wks): − (Decreases in the levels of Aβ of 5 to 14%); Plasma Abeta42 ([2]; 100 mg/kg daily, 16 wks): 0 (changes of 4% or less in either direction); amount of Aβ in the brain ([2]; at both 8 and 16 weeks): dramatic decrease"
O=S(=O)(O)CCCNC12CC3CC(CC(C3)C1)C2 [BW],0 (changes of 9.99% or less in either direction),0 (changes of 9.99% or less in either direction),0 (changes of 9.99% or less in either direction),− (Decreases in the areas and numbers of plaques of 10 to 19.99%),−− (decreases of 15 to 29%),− (Decreases in the levels of Aβ of 5 to 14%),0 (changes of 4% or less in either direction),−− (decreases of 15 to 29%),−−− (decreases of 30% or more),−−− (decreases of 30% or more),++ (increases of 15 to 29%),+ (increases in the levels of Aβ (relative to vehicle treated control) of 5 to 14%),+ (increases in the levels of Aβ (relative to vehicle treated control) of 5 to 14%),− (Decreases in the levels of Aβ of 5 to 14%),−− (decreases of 15 to 29%),−− (decreases of 15 to 29%),−−− (decreases of 30% or more),−− (decreases of 15 to 29%),−−− (decreases of 30% or more),−− (decreases of 15 to 29%),"Plasma Abeta40 ([2]; 100 mg/kg daily, 8 wks): − (Decreases in the levels of Aβ of 5 to 14%); Plasma Abeta42 ([2]; 100 mg/kg daily, 8 wks): − (Decreases in the levels of Aβ of 5 to 14%); Brain Abeta40 insoluble ([2]; 100 mg/kg daily, 16 wks): + (increases in the levels of Aβ (relative to vehicle treated control) of 5 to 14%); Brain Abeta40 soluble ([2]; 100 mg/kg daily, 16 wks): ++ (increases of 15 to 29%); Brain Abeta42 insoluble ([2]; 100 mg/kg daily, 16 wks): ++ (increases of 15 to 29%); Brain Abeta42 soluble ([2]; 100 mg/kg daily, 16 wks): + (increases in the levels of Aβ (relative to vehicle treated control) of 5 to 14%); Plasma Abeta40 ([2]; 100 mg/kg daily, 16 wks): − (Decreases in the levels of Aβ of 5 to 14%); Plasma Abeta42 ([2]; 100 mg/kg daily, 16 wks): − (Decreases in the levels of Aβ of 5 to 14%); brain and plasma levels of Aβ ([2]; at 8 weeks): dramatic decrease; plasma levels of Aβ ([2]; at 16 weeks): dramatic decrease"
